# Laboratory results taken from PMC10412865 (Current Research in Toxicology, 2023).
# Where a name gives a salt, the structure may show the parent alone. Read-outs that look alike come from different tables or passages of the source.
# Assays:
# [1] = tested on: CYP3A4 activity in HepaRG cells; details: 48 h
# [2] = tested on: CYP1A2 activity in HepaRG cells; experiment: CYP1A2 enzyme activity in differentiated HepaRG monolayers; format: cell-based, human; details: HepaRG, 48 h
# human recombinant CYP2E1 = human recombinant CYP2E1 (Homo sapiens, UniProt P05181); experiment: Human recombinant CYP2E1 Supersome inhibition assay; format: biochemical
# Sequence of human recombinant CYP2E1 (P05181 whole entry): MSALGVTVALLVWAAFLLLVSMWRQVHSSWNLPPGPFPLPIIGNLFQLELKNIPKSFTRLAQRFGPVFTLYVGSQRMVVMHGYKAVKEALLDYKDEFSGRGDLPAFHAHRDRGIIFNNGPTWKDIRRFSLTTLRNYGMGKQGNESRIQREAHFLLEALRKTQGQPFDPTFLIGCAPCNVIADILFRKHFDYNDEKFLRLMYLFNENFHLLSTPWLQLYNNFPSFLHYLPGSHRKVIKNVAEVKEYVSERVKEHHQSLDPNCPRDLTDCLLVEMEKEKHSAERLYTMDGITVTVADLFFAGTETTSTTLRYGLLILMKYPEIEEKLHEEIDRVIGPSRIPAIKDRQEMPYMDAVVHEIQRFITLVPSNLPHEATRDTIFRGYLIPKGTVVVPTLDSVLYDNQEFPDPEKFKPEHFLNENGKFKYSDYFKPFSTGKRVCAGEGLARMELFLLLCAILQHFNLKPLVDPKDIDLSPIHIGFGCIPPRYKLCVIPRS
# CYP1A2 = CYP1A2 enzyme activity in differentiated HepaRG monolayers; format: cell-based, human; details: human, differentiated HepaRG cell monolayers, probe luciferin-1A2 (6 µM)
# human recombinant CYP3A4 = human recombinant CYP3A4 (Homo sapiens, UniProt P08684); experiment: Human recombinant CYP3A4 Supersome inhibition assay; format: biochemical
# Sequence of human recombinant CYP3A4 (P08684 whole entry): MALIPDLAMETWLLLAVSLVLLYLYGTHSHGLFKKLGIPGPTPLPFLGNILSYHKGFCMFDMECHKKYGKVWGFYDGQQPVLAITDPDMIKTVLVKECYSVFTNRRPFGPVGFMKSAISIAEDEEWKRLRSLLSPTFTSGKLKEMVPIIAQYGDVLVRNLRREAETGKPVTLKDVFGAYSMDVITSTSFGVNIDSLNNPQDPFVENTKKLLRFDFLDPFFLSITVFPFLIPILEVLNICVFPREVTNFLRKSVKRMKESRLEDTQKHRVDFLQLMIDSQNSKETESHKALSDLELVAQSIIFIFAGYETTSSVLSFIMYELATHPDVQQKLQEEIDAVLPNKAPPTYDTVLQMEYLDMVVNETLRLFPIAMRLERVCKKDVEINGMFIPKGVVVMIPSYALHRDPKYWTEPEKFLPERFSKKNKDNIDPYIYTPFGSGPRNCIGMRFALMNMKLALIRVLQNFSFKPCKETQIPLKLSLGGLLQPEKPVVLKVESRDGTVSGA
# human recombinant CYP2B6 = target: T1, human recombinant CYP2B6 (Homo sapiens, UniProt P20813); experiment: Human recombinant CYP2B6 Supersome inhibition assay; format: biochemical
# T1 sequence (P20813 1-491): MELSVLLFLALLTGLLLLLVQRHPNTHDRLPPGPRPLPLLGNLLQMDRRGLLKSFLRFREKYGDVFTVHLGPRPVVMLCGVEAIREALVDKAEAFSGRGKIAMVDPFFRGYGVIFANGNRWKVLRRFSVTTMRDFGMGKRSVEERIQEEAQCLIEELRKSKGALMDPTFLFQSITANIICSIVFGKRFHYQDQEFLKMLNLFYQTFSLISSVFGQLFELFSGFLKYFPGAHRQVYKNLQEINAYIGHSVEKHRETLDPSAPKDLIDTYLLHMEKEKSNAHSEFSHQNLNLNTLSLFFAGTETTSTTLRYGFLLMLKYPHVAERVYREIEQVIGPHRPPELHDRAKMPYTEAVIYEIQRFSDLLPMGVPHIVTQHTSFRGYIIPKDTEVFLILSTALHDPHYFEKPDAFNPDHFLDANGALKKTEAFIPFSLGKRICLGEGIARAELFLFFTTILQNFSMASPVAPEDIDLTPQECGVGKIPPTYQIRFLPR
# [3] = target: human recombinant CYP2C19 (Homo sapiens, UniProt P33261); experiment: Human recombinant CYP2C19 Supersome inhibition assay; format: biochemical
# Sequence of human recombinant CYP2C19 (P33261 whole entry): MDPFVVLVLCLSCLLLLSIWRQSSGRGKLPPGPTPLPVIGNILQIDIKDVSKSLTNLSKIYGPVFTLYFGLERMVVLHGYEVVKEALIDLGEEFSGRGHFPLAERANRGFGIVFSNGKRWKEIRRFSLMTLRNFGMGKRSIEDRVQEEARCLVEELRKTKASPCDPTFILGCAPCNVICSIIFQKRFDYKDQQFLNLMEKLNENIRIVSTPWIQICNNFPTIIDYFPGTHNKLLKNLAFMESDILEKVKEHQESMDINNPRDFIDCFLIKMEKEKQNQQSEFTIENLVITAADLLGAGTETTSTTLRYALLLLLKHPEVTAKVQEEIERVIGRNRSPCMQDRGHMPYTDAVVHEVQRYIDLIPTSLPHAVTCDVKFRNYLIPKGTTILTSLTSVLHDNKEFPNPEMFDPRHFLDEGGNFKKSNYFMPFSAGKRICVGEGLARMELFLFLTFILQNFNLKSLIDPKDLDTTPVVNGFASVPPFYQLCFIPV
# human recombinant CYP1A2 = target: T2, human recombinant CYP1A2 (Homo sapiens, UniProt P05177); experiment: Human recombinant CYP1A2 Supersome inhibition assay; format: biochemical
# T2 sequence (P05177 1-516): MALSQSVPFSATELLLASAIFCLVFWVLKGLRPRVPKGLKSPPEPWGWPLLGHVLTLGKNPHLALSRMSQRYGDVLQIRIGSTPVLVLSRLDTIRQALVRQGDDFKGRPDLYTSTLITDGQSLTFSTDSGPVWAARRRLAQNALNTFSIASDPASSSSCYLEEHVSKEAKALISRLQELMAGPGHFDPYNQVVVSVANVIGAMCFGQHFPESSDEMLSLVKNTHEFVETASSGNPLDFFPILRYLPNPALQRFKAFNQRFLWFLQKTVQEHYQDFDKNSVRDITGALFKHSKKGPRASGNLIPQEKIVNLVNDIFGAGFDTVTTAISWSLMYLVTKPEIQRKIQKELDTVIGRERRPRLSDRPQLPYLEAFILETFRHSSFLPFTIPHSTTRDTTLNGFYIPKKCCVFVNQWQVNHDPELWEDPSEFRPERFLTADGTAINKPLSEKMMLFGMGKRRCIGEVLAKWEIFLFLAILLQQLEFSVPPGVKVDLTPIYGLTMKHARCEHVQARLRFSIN
# [4] = humans, estimated average; ref Olsen et al. 2007; cited from earlier work
# [5] = 1 nM PFAS in binary mixture with 10 µM rifampicin
# [6] = 1 µM PFAS in binary mixture with 10 µM rifampicin
# [7] = 1 nM PFAS in binary mixture with 10 µM BaP
# [8] = 1 µM PFAS in binary mixture with 10 µM BaP
CYP3A4 activity (% of the solvent control) ([1]; 1 nM PFAS alone),CYP3A4 activity (% of the solvent control) ([1]; 1 µM PFAS alone),SMILES,"CYP3A4 activity (% of the solvent control) [1, 5]","CYP3A4 activity (% of the solvent control) [1, 6]",CYP1A2 activity (% of the solvent control) ([2]; 1 nM PFAS alone),"CYP1A2 activity (% of the solvent control) [2, 7]",CYP1A2 activity (% of the solvent control) ([2]; 1 µM PFAS alone),"CYP1A2 activity (% of the solvent control) [2, 8]",IC50 (human recombinant CYP2E1) [µM],"activity at 48 h, 1 nM (CYP1A2) [%]","activity at 48 h, 1 µM (CYP1A2) [%]",IC50 (human recombinant CYP3A4) [µM],IC50 (human recombinant CYP2B6) [µM],IC50 [3] [µM],IC50 (human recombinant CYP1A2) [µM],half-life of serum elimination [4] [years]
no statistically significant differences,no statistically significant differences,"OCCC(F)(F)C(F)(F)C(F)(F)C(F)(F)C(F)(F)C(F)(F)F [6:2 FTOH, 6:2 Fluorotelomer alcohol]",not statistically different from the inducer nor the solvent control,not statistically different from the inducer nor the solvent control,168.4%,lower,148.4%,lower,–,–,–,–,–,–,–,–
–,–,"O=C(O)C(F)(OC(F)(F)C(F)(F)C(F)(F)F)C(F)(F)F (centres unmarked) [HFPO-DA, Undecafluoro-2-methyl-3-oxahexanoic acid]",did not influence the CYP3A4 activity,did not influence the CYP3A4 activity,neither concentration of HFPO-DA nor PFHxS had a significant effect,decreased activity,neither concentration of HFPO-DA nor PFHxS had a significant effect,decreased activity,–,–,–,–,–,–,–,–
–,–,"O=S(=O)(O)C(F)(F)C(F)(F)C(F)(F)C(F)(F)F [PFBS, Perfluorobutanesulfonic acid]",concentration-dependent decrease,–,205.4%,130.9%,204.4%,128.5%,–,–,–,–,–,–,–,–
–,–,"O=C(O)C(F)(F)C(F)(F)C(F)(F)C(F)(F)C(F)(F)F [PFHxA, Perfluorohexanoic acid]",–,not in those exposed to the higher (1 µM) concentrations,increased CYP1A2 activity,no significant differences,increased CYP1A2 activity,no significant differences,–,–,–,–,–,–,–,–
–,–,"O=S(=O)(O)C(F)(F)C(F)(F)C(F)(F)C(F)(F)C(F)(F)C(F)(F)F [PFHxS, Perfluorohexanesulfonic acid potassium salt]",significantly lower relative to rifampicin alone,significantly lower relative to rifampicin alone,no significant differences,–,no significant differences,–,> 100,80.2,122,> 100,> 100,51.6,13.8,–
–,–,"O=C(O)C(F)(F)C(F)(F)C(F)(F)C(F)(F)C(F)(F)C(F)(F)C(F)(F)F [PFOA, Perfluorooctanoic acid]",–,–,–,–,–,–,> 100,–,–,> 100,96.9,> 100,> 100,3.5
